Reference: ChEMBL document CHEMBL4316623, “Phosphonodiamidate prodrugs of N-alkoxy analogs of a fosmidomycin surrogate as antimalarial and antitubercular agents” (Bioorg Med Chem Lett, 2019)

Assays:
[1] = system: Mycobacterium tuberculosis; assay: Antitubercular activity against Mycobacterium tuberculosis H37Ra ATCC 25177 harboring lux gene measured after 7 days by luminometric method; assay type: functional, organism-based; settings: H37Ra ATCC 25177, 168 h
[2] = Selectivity index, ratio of CC50 for human MRC5 cells to IC50 for Mycobacterium tuberculosis H37Ra ATCC 25177 harboring lux gene; assay type: toxicity; settings: read-out: Ratio CC50/IC50

| Compound | IC50 [1] [µM] | selectivity ratio [2] |
| --- | --- | --- |
| CCOC(=O)[C@H](CC(C)C)NP(=O)(CCCC(=O)N(C)O)N[C@@H](CC(C)C)C(=O)OCC | 29.4 | > 2.2 |
| CCOC(=O)[C@H](CC(C)C)NP(=O)(CCCC(=O)N(C)OCCCCc1ccccc1)N[C@@H](CC(C)C)C(=O)OCC | 50.3 | 0.14 |
| CCOC(=O)[C@H](CC(C)C)NP(=O)(CCCC(=O)N(C)OCc1ccc(C(C)C)cc1)N[C@@H](CC(C)C)C(=O)OCC | 49.1 | 0.15 |
| CCOC(=O)[C@H](CC(C)C)NP(=O)(CCCC(=O)N(C)OCCCc1ccccc1)N[C@@H](CC(C)C)C(=O)OCC | > 64 | – |
| CCOC(=O)[C@H](CC(C)C)NP(=O)(CCCC(=O)N(C)OCc1ccc(Cl)cc1)N[C@@H](CC(C)C)C(=O)OCC | 49 | 0.37 |
| CCOC(=O)[C@H](CC(C)C)NP(=O)(CCCC(=O)N(C)OCc1ccc2ccccc2c1)N[C@@H](CC(C)C)C(=O)OCC | 48.2 | 0.11 |
| CCOC(=O)[C@H](CC(C)C)NP(=O)(CCCC(=O)N(C)OCc1ccc(-c2ccccc2)cc1)N[C@@H](CC(C)C)C(=O)OCC | 35.2 | 0.17 |
| CCOC(=O)[C@H](CC(C)C)NP(=O)(CCCC(=O)N(C)OCc1ccccc1)N[C@@H](CC(C)C)C(=O)OCC | > 64 | – |
| NNC(=O)c1ccncc1 [ISONIAZID] | 0.21 | – |
